Data: US8106055B2, “Substituted amide compounds” (Gruenenthal GmbH, priority 2007, dated 2012)

Columns and labels:
[1] = molecular target: T1, bradykinin 1 receptor (B1R) of the rat (Rattus norvegicus, UniProt P97583); assay: Functional investigation on the rat bradykinin 1 receptor (B1R), Ca2+ FLIPR assay in CHO K1 rB1R cells; format: cell-based; conditions: test substance 10 μM, Ca2+ FLIPR, CHO K1 rB1R cells; for inhibition at 10 µM: CHO-K1, B1R antagonism rat, read-out: B1R Ant. r [10 μM] % Inhibition
T1 construct: expressed in transfected cells; host or cells: CHO K1 cells
T1 sequence (P97583 1-337): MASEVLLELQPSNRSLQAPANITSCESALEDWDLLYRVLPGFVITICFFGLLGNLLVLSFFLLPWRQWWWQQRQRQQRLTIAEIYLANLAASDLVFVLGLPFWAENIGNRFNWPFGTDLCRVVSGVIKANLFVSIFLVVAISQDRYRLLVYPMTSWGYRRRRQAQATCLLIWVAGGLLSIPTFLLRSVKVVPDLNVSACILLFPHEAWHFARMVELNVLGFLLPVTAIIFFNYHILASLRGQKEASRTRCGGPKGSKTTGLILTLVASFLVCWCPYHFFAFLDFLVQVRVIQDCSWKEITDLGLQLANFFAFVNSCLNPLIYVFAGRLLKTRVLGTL
In short: (§1)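 Stably transfected CHO K1 cells loaded with Fluo-4; FLIPR Ca2+ fluorescence peak (ex 488/em 540 nm). Compound added first (agonism vs Lys-Des-Arg9-bradykinin ≥50 nM human, Des-Arg9-bradykinin 10 μM rat), then after 10-20 min agonist at EC80; antagonism as % inhibition, IC50 from concentration series, n=2-3, N≥2.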

human μ opiate receptor = molecular target: T2, human μ opiate receptor (Homo sapiens, UniProt P35372); assay: Affinity for the human μ opiate receptor ([3H]-naloxone displacement, CHO-K1 receptor membrane preparation, SPA); format: binding; conditions: Table 3, to be read in the same way as Table 1, test concentration 1 μM; for inhibition at 1 µM: 1.5 h, read-out: μ
T2 construct: purchased PerkinElmer Life Sciences, Zaventem, Belgium RB-HOM; host or cells: CHO-K1 cells (membrane preparation)
T2 sequence (P35372 whole entry): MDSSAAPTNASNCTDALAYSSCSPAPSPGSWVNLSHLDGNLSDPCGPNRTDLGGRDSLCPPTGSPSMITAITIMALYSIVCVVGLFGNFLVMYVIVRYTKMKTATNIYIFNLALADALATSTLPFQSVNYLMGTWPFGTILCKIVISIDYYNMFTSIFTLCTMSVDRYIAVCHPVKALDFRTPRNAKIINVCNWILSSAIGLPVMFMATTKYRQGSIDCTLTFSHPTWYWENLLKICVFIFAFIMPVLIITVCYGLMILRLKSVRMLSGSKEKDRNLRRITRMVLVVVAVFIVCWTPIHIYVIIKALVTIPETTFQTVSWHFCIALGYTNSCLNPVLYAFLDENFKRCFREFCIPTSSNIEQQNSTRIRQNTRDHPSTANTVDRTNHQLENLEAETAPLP
In short: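 CHO-K1 membranes expressing human μ receptor incubated 90 min at room temperature with 1 nmol/l [3H]-naloxone and WGA-SPA beads in 50 mmol/l Tris-HCl, 0.06% BSA; 100 μmol/l naloxone defines non-specific binding. Values are % inhibition of specific binding at 1 μM; IC50 converted to Ki by Cheng-Prusoff.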

[2] = molecular target: T3, human bradykinin 1 receptor (B1R) (Homo sapiens, UniProt P46663); assay: Functional investigation on the human bradykinin 1 receptor (B1R), Ca2+ FLIPR assay in CHO K1 hB1R cells; format: cell-based; conditions: test substance 10 μM, Ca2+ FLIPR, CHO K1 hB1R cells; for inhibition at 10 µM: CHO-K1, B1R antagonism human, read-out: B1R Ant. h [10 μM] % Inhibition
T3 construct: expressed in transfected cells; host or cells: CHO K1 cells
T3 sequence (P46663 1-353): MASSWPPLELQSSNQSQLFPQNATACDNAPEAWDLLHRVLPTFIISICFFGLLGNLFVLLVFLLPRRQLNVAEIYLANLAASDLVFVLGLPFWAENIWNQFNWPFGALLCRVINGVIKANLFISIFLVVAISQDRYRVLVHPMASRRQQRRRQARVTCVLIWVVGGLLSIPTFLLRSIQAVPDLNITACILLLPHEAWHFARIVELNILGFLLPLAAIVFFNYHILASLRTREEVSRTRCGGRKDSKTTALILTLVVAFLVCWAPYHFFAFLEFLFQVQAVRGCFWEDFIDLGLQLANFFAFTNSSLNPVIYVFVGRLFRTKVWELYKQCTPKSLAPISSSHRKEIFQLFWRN
In short: as §1

| SMILES | inhibition at 10 µM [1] | inhibition at 1 µM (human μ opiate receptor) | inhibition at 10 µM [2] | B1R Ant. r [10 μM] % Inhibition ([1]; B1R antagonism rat) | μ (human μ opiate receptor) | B1R Ant. h [10 μM] % Inhibition ([2]; B1R antagonism human) |
| --- | --- | --- | --- | --- | --- | --- |
| COc1cc(C)c(S(=O)(=O)N2CCCC(COCC(=O)NC3CCC(C(c4ccccc4)N4CCCC4)CC3)C2)c(C)c1 (stereo not drawn) [Example 654, 2-((1-(4-methoxy-2,6-dimethylphenylsulfonyl)piperidin-3-yl)methoxy)-N-(4-(phenyl(pyrrolidin-1-yl)methyl)cyclohexyl)acetamide] | 46% | 53% | 80% | – | – | – |
| COc1cc(C)c(S(=O)(=O)N2CCCC(COCC(=O)NCC3CCC(C(c4ccccc4)N4CCCC4)CC3)C2)c(C)c1 (stereo not drawn) [Example 655, 2-((1-(4-methoxy-2,6-dimethylphenylsulfonyl)piperidin-3-yl)methoxy)-N-((4-(phenyl(pyrrolidin-1-yl)methyl)cyclohexyl)methyl)acetamide] | 74% | 38% | 71% | – | – | – |
| O=C(COC1CCCN(S(=O)(=O)c2c(Cl)cc(Cl)cc2Cl)C1)NCC1CCC(C(c2ccccc2)N2CCCC2)CC1 (stereo not drawn) [Example 656, N-((4-(phenyl(pyrrolidin-1-yl)methyl)cyclohexyl)methyl)-2-(1-(2,4,6-trichlorophenylsulfonyl)piperidin-3-yloxy)acetamide] | 42% | 89% | 76% | – | – | – |
| COc1cc(C)c(S(=O)(=O)N2CCCCC2COCC(=O)NCC2CCC(C(c3ccccc3)N3CCCC3)CC2)c(C)c1 (stereo not drawn) [Example 657, 2-((1-(4-methoxy-2,6-dimethylphenylsulfonyl)piperidin-2-yl)methoxy)-N-((4-(phenyl(pyrrolidin-1-yl)methyl)cyclohexyl)methyl)acetamide] | 105% | 84% | 104% | – | – | – |
| O=C(COCC1CCCCN1S(=O)(=O)c1c(Cl)cc(Cl)cc1Cl)NCC1CCC(C(c2ccccc2)N2CCCC2)CC1 (stereo not drawn) [Example 658, N-((4-(phenyl(pyrrolidin-1-yl)methyl)cyclohexyl)methyl)-2-((1-(2,4,6-trichlorophenylsulfonyl)piperidin-2-yl)methoxy)acetamide] | 105% | 88% | 104% | – | – | – |
| O=C(COCC1CCCN(S(=O)(=O)c2c(Cl)cc(Cl)cc2Cl)C1)NCC1CCC(C(c2ccccc2)N2CCCC2)CC1 (stereo not drawn) [Example 659, N-((4-(phenyl(pyrrolidin-1-yl)methyl)cyclohexyl)methyl)-2-((1-(2,4,6-trichlorophenylsulfonyl)piperidin-3-yl)methoxy)acetamide] | 100% | 79% | 50% | – | – | – |
| CN(CCOCC(=O)NC1CCC(C(CCc2ccccc2)N2CCOCC2)CC1)S(=O)(=O)c1ccc(Cl)cc1Cl (stereo not drawn) [Example 660, 2-(2-(2,4-dichloro-N-methylphenylsulfonamido)ethoxy)-N-(4-(1-morpholino-3-phenylpropyl)cyclohexyl)acetamide] | 12% | 4% | 30% | – | – | – |
| CN(CCOCC(=O)NC1CCC(C(CCc2ccccc2)N2CCCCC2)CC1)S(=O)(=O)c1ccc(Cl)cc1Cl (stereo not drawn) [Example 661, 2-(2-(2,4-dichloro-N-methylphenylsulfonamido)ethoxy)-N-(4-(3-phenyl-1-(piperidin-1-yl)propyl)cyclohexyl)acetamide] | 25% | 21% | 73% | – | – | – |
| COc1cc(C)c(S(=O)(=O)N(C)CCOCC(=O)NC2CCC(C(CCc3ccccc3)N3CCOCC3)CC2)c(C)c1 (stereo not drawn) [Example 662, 2-(2-(4-methoxy-N,2,6-trimethylphenylsulfonamido)ethoxy)-N-(4-(1-morpholino-3-phenylpropyl)cyclohexyl)acetamide] | 101% | 3% | 104% | – | – | – |
| COc1cc(C)c(S(=O)(=O)N(C)CCOCC(=O)NC2CCC(C(CCc3ccccc3)N3CCCCC3)CC2)c(C)c1 (stereo not drawn) [Example 663, 2-(2-(4-methoxy-N,2,6-trimethylphenylsulfonamido)ethoxy)-N-(4-(3-phenyl-1-(piperidin-1-yl)propyl)cyclohexyl)acetamide] | 95% | 26% | 103% | – | – | – |
| CN(CCOCC(=O)NC1CCC(C(CCc2ccccc2)N2CCOCC2)CC1)S(=O)(=O)c1c(Cl)cccc1Cl (stereo not drawn) [Example 664, 2-(2-(2,6-dichloro-N-methylphenylsulfonamido)ethoxy)-N-(4-(1-morpholino-3-phenylpropyl)cyclohexyl)acetamide] | 11% | 5% | 70% | – | – | – |
| CN(CCOCC(=O)NC1CCC(C(CCc2ccccc2)N2CCCCC2)CC1)S(=O)(=O)c1c(Cl)cccc1Cl (stereo not drawn) [Example 665, 2-(2-(2,6-dichloro-N-methylphenylsulfonamido)ethoxy)-N-(4-(3-phenyl-1-(piperidin-1-yl)propyl)cyclohexyl)acetamide] | 28% | 18% | 94% | – | – | – |
| O=C(COC1CCN(S(=O)(=O)c2c(Cl)cc(Cl)cc2Cl)C1)NC1CCC(C(CCc2ccccc2)N2CCOCC2)CC1 (stereo not drawn) [Example 666, N-(4-(1-morpholino-3-phenylpropyl)cyclohexyl)-2-(1-(2,4,6-trichlorophenylsulfonyl)pyrrolidin-3-yloxy)acetamide] | 5% | 6% | 11% | – | – | – |
| O=C(COC1CCN(S(=O)(=O)c2c(Cl)cc(Cl)cc2Cl)C1)NC1CCC(C(CCc2ccccc2)N2CCCCC2)CC1 (stereo not drawn) [Example 667, N-(4-(3-phenyl-1-(piperidin-1-yl)propyl)cyclohexyl)-2-(1-(2,4,6-trichlorophenylsulfonyl)pyrrolidin-3-yloxy)acetamide] | 17% | 32% | 57% | – | – | – |
| COc1cc(C)c(S(=O)(=O)N2CCC(OCC(=O)NC3CCC(C(CCc4ccccc4)N4CCOCC4)CC3)C2)c(C)c1 (stereo not drawn) [Example 668, 2-(1-(4-methoxy-2,6-dimethylphenylsulfonyl)pyrrolidin-3-yloxy)-N-(4-(1-morpholino-3-phenylpropyl)cyclohexyl)acetamide] | 64% | 10% | 88% | – | – | – |
| COc1cc(C)c(S(=O)(=O)N2CCC(OCC(=O)NC3CCC(C(CCc4ccccc4)N4CCCCC4)CC3)C2)c(C)c1 (stereo not drawn) [Example 669, 2-(1-(4-methoxy-2,6-dimethylphenylsulfonyl)pyrrolidin-3-yloxy)-N-(4-(3-phenyl-1-(piperidin-1-yl)propyl)cyclohexyl)acetamide] | 95% | 20% | 103% | – | – | – |
| CN(CCOCC(=O)NC1CCC(C(CCc2ccccc2)N2CCOCC2)CC1)S(=O)(=O)c1c(Cl)cc(C(F)(F)F)cc1Cl (stereo not drawn) [Example 670, 2-(2-(2,6-dichloro-N-methyl-4-(trifluoromethyl)phenylsulfonamido)ethoxy)-N-(4-(1-morpholino-3-phenylpropyl)cyclohexyl)acetamide] | 58% | 7% | 12% | – | – | – |
| CN(CCOCC(=O)NC1CCC(C(CCc2ccccc2)N2CCCCC2)CC1)S(=O)(=O)c1c(Cl)cc(C(F)(F)F)cc1Cl (stereo not drawn) [Example 671, 2-(2-(2,6-dichloro-N-methyl-4-(trifluoromethyl)phenylsulfonamido)ethoxy)-N-(4-(3-phenyl-1-(piperidin-1-yl)propyl)cyclohexyl)acetamide] | 4% | 9% | 43% | – | – | – |
| O=C(COC1CCCN(S(=O)(=O)c2c(Cl)cc(Cl)cc2Cl)C1)NC1CCC(C(CCc2ccccc2)N2CCOCC2)CC1 (stereo not drawn) [Example 672, N-(4-(1-morpholin-3-phenylpropyl)cyclohexyl)-2-(1-(2,4,6-trichlorophenylsulfonyl)piperidin-3-yloxy)acetamide] | – | – | – | 11% | 16 % inhibition | 18% |
